The target of one test is Carbonic anhydrase 1 (Homo sapiens, UniProt P00915). Description: Inhibition of human recombinant carbonic anhydrase 1 preincubated for 15 mins by stopped flow CO2 hydration assay.
The target in the next test is Carbonic anhydrase 14 (Homo sapiens, UniProt Q9ULX7). Description: Inhibition of human recombinant carbonic anhydrase 14 preincubated for 15 mins by stopped flow CO2 hydration assay.
The target in a further test is Carbonic anhydrase 2 (Homo sapiens, UniProt P00918). Briefly: Inhibition of human recombinant carbonic anhydrase 2 preincubated for 15 mins by stopped flow CO2 hydration assay.
A further test deals with Carbonic anhydrase 9 (Homo sapiens, UniProt Q16790).

Carbonic anhydrase 14, sequence (Q9ULX7 whole entry): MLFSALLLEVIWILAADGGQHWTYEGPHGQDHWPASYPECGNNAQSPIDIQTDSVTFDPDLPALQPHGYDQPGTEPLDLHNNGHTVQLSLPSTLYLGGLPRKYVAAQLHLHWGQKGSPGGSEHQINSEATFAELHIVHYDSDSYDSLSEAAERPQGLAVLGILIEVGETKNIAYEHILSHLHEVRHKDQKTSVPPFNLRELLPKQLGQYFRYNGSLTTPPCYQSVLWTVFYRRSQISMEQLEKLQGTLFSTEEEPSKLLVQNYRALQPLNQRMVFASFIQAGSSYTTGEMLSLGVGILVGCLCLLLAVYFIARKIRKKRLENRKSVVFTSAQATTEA
Carbonic anhydrase 1, sequence (P00915 whole entry): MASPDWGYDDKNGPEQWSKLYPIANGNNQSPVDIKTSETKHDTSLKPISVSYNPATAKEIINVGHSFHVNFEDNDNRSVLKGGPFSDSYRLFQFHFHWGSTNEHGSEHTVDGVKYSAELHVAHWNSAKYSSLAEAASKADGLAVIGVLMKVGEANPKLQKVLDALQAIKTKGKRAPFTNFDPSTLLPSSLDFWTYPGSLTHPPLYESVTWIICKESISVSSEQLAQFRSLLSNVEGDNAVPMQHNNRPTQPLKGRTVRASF
Description for Carbonic anhydrase 9: Inhibition of human catalytic domain of carbonic anhydrase 9 preincubated for 15 mins by stopped flow CO2 hydration assay

For orientation: Ki means the equilibrium dissociation constant of an inhibitor or competing ligand from its target. As to `NS(=O)(=O)Cc1ccc(NS(=O)(=O)c2ccc(Br)cc2Cl)cc1`, the Ki is 8.6 nM on Carbonic anhydrase 1, 19.4 nM at Carbonic anhydrase 14 and 6.3 nM on Carbonic anhydrase 2.
Consider `NS(=O)(=O)Cc1ccc(NC(=O)C2CC=CCC2)cc1` (configuration not stated), for which the Ki on Carbonic anhydrase 1 was 8.9 nM; at Carbonic anhydrase 9 it was 53.2 nM; at Carbonic anhydrase 14, 7.6 nM; at Carbonic anhydrase 2, 73.2 nM.
